Measured values: patent US8492371B2, “Compounds as cannabinoid receptor ligands” (priority 2009, dated 2013)
Where two headings read alike, the source gives them in different places.

Tests used:
rat CB2 receptors = target: T1, rat CB2 receptors (Rattus norvegicus, UniProt Q9QZN9); test: Rat CB2 radioligand binding assay ([3H]CP-55,940 competition)
T1 construct: expressed in transfected cells; host or cells: HEK293
T1 sequence (Q9QZN9 1-360): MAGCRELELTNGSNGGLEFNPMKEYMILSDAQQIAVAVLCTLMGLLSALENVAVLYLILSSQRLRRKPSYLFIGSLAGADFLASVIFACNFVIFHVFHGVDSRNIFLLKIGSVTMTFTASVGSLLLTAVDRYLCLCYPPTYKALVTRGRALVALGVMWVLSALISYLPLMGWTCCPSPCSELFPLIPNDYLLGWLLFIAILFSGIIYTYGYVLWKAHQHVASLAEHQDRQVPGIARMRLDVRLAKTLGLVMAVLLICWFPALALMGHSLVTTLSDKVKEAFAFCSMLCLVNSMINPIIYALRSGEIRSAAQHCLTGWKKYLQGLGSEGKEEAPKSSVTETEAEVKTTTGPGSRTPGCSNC
Protocol: HEK293 cells stably expressing rat CB2 receptors were grown until a confluent monolayer was formed. Briefly, the cells were harvested and homogenized in TE buffer (50 mM Tris-HCl, 1 mM MgCl2, and 1 mM EDTA) using a polytron for 2×10 second bursts in the presence of protease inhibitors, followed by centrifugation at 45,000×g for 20 minutes. The final membrane pellet was re-homogenized in storage buffer (50 mM Tris-HCl, 1 mM MgCl2, and 1 mM EDTA and 10% sucrose) and frozen at −78° C. until used. Saturation binding reactions were initiated by the addition of membrane preparation (protein concentration of 20 μg/well for rat CB2) into wells of a deep well plate containing [^3H]CP-55,940 (120 Ci/mmol, a nonselective CB agonist commercially available from Tocris) in assay buffer (50 mM Tris, 2.5 mM EDTA, 5 mM MgCl2, and 0.5 mg/mL fatty acid free BSA, pH 7.4). After 45 min incubation at 30° C., binding reaction was terminated by the addition of 300 μL/well of cold assay buffer followed by rapid vacuum filtration through a UniFilter-96 GF/C filter plates (pre-soaked in 1 mg/mL BSA for 2 hours). The bound activity was counted in a TopCount using Microscint-20. Saturation experiments were conducted with twelve concentrations of [^3H]CP-55,940 ranging from 0.01 to 8 nM. Competition experiments were conducted with 0.5 nM [^3H]CP-55,940 and five concentrations of displacing ligands selected from the range of 0.01 nM to […] addition of 10 μM unlabeled CP-55,940 (Tocris, Ellisville, Mo.) was used to assess nonspecific binding.

human CB2 receptors = target: T2, human CB2 receptors (Homo sapiens, UniProt P34972); test: Human CB2 radioligand binding assay ([3H]CP-55,940 competition)
T2 construct: expressed in transfected cells; host or cells: HEK293
Protocol: The CB1 and CB2 radioligand binding assays described herein are utilized to determine the selectivity of compounds of the present invention for binding to CB2 relative to CB1 receptors.
HEK293 cells stably expressing human CB2 receptors were grown until a confluent monolayer was formed. Briefly, the cells were harvested and homogenized in TE buffer (50 mM Tris-HCl, 1 mM MgCl2, and 1 mM EDTA) using a polytron for 2×10 second bursts in the presence of protease inhibitors, followed by centrifugation at 45,000×g for 20 minutes. The final membrane pellet was re-homogenized in storage buffer (50 mM Tris-HCl, 1 mM MgCl2, and 1 mM EDTA and 10% sucrose) and frozen at −78° C. until used. Saturation binding reactions were initiated by the addition of membrane preparation (protein concentration of 5 μg/well for human CB2) into wells of a deep well plate containing ([^3H]CP-55,940 (120 Ci/mmol, a nonselective CB agonist commercially available from Tocris) in assay buffer (50 mM Tris, 2.5 mM EDTA, 5 mM MgCl2, and 0.5 mg/mL fatty acid free BSA, pH 7.4). After 90 min incubation at 30° C., binding reaction was terminated by the addition of 300 μL/well of cold assay buffer followed by rapid vacuum filtration through a UniFilter-96 GF/C filter plates (pre-soaked in 1 mg/mL BSA for 2 hours). The bound activity was counted in a TopCount using Microscint-20. Saturation experiments were conducted with twelve concentrations of [^3H]CP-55,940 ranging from 0.01 to 8 nM. Competition experiments were conducted with 0.5 nM [^3H]CP-55,940 and five concentrations of displacing ligands selected from the range of 0.01 nM to 10 μM. The addition of 10 μM unlabeled CP-55,940 (Tocris, Ellisville, Mo.) was used to assess nonspecific binding.

T2 sequence (P34972 whole entry): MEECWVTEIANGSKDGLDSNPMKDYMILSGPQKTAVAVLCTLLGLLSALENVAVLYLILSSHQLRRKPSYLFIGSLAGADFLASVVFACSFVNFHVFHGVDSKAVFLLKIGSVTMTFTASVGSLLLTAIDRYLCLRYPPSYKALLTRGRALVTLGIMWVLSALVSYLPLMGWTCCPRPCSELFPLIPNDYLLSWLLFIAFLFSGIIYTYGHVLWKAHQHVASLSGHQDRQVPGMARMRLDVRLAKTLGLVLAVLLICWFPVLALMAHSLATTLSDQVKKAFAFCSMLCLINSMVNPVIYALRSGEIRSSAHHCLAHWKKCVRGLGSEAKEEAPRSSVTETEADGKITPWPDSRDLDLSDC

SMILES: C[C@@H](F)COc1ccc(C(F)(F)F)cc1C(=O)/N=c1\cc(C(C)(C)C)n(C)n1C[C@H]1CCCO1 [Example 41, N-{(3E)-5-tert-butyl-1-methyl-2-[(2R)-tetrahydrofuran-2-ylmethyl]-1,2-dihydro-3H-pyrazol-3-ylidene}-2-{[(2R)-2-fluoropropyl]oxy}-5-(trifluoromethyl)benzamide]
- Ki (rat CB2 receptors): 0.018 µM
- Ki (human CB2 receptors): 0.132 µM

SMILES: CC(C)[C@@H](CO)NC(=O)/N=c1\sc(C(C)(C)C)nn1C[C@H]1CCCO1 [Example 84, N-[(2Z)-5-tert-butyl-3-[(2R)-tetrahydrofuran-2-ylmethyl]-1,3,4-thiadiazol-2(3 H)-ylidene]-N′-[(1S)-1-(hydroxymethyl)-2-methylpropyl]urea]
- Ki (rat CB2 receptors): 0.073 µM
- Ki (human CB2 receptors): 0.199 µM

SMILES: Cn1c(C(C)(C)C)c/c(=N\C(=O)c2cc([N+](=O)[O-])ccc2F)n1C[C@H]1CCCO1 [Example 129, N-{(3E)-5-tert-butyl-1-methyl-2-[(2R)-tetrahydrofuran-2-ylmethyl]-1,2-dihydro-3H-pyrazol-3-ylidene}-2-fluoro-5-nitrobenzamide]
- Ki (rat CB2 receptors): 0.0023 µM
- Ki (human CB2 receptors): 0.0086 µM

SMILES: COc1ccc(Cl)cc1C(=O)/N=c1\sc(C2(C(F)(F)F)CC2)nn1C[C@H]1CCCO1 [Example 1, 5-chloro-2-methoxy-N-[(2Z)-3-[(2R)-tetrahydrofuran-2-ylmethyl]-5-[1-(trifluoromethyl)cyclopropyl]-1,3,4-thiadiazol-2(3H)-ylidene]benzamide]
- Ki (rat CB2 receptors): 0.0029 µM
- Ki (human CB2 receptors): 0.051 µM

SMILES: Cn1c(C(C)(C)C)c/c(=N\C(=O)c2cc(C(F)(F)F)ccc2OCCF)n1C[C@H]1CCCO1 [Example 22, N-{(3E)-5-tert-butyl-1-methyl-2-[(2R)-tetrahydrofuran-2-ylmethyl]-1,2-dihydro-3H-pyrazol-3-ylidene}-2-(2-fluoroethoxy)-5-(trifluoromethyl)benzamide]
- Ki (rat CB2 receptors): 0.01 µM
- Ki (human CB2 receptors): 0.024 µM

SMILES: Cn1c(C(C)(C)C)c/c(=N\C(=O)c2cc(Br)cc(C(F)(F)F)c2)n1C[C@H]1CCCO1 [Example 104, 3-bromo-N-{(3E)-5-tert-butyl-1-methyl-2-[(2R)-tetrahydrofuran-2-ylmethyl]-1,2-dihydro-3H-pyrazol-3-ylidene}-5-(trifluoromethyl)benzamide]
- Ki (rat CB2 receptors): 0.0093 µM
- Ki (human CB2 receptors): 0.046 µM

SMILES: COCCOc1ccc(C(F)(F)F)cc1C(=O)/N=c1\cc(C(C)(C)C)n(C)n1C[C@H]1CCCO1 [Example 23, N-{(3E)-5-tert-butyl-1-methyl-2-[(2R)-tetrahydrofuran-2-ylmethyl]-1,2-dihydro-3H-pyrazol-3-ylidene}-2-(2-methoxyethoxy)-5-(trifluoromethyl)benzamide]
- Ki (rat CB2 receptors): 0.019 µM
- Ki (human CB2 receptors): 0.03 µM

SMILES: CC(CF)Oc1ccc(C(F)(F)F)cc1C(=O)/N=c1\cc(C(C)(C)C)n(C)n1C[C@H]1CCCO1 (stereo partly drawn) [Example 42, N-{(3E)-5-tert-butyl-1-methyl-2-[(2R)-tetrahydrofuran-2-ylmethyl]-1,2-dihydro-3H-pyrazol-3-ylidene}-2-(2-fluoro-1-methylethoxy)-5-(trifluoromethyl)benzamide]
- Ki (rat CB2 receptors): 0.03 µM
- Ki (human CB2 receptors): 0.139 µM

SMILES: Cn1c(C(C)(C)C)c/c(=N\C(=O)c2cc(Br)ccc2F)n1C[C@H]1CCCO1 [Example 132, 5-bromo-N-{(3E)-5-tert-butyl-1-methyl-2-[(2R)-tetrahydrofuran-2-ylmethyl]-1,2-dihydro-3H-pyrazol-3-ylidene}-2-fluorobenzamide]
- Ki (rat CB2 receptors): 0.0071 µM
- Ki (human CB2 receptors): 0.015 µM

SMILES: COCCCc1ccc(C(F)(F)F)cc1C(=O)/N=c1\cc(C(C)(C)C)n(C)n1C[C@H]1CCCO1 [Example 90, N-{(3E)-5-tert-butyl-1-methyl-2-[(2R)-tetrahydrofuran-2-ylmethyl]-1,2-dihydro-3H-pyrazol-3-ylidene}-2-(3-methoxypropyl)-5-(trifluoromethyl)benzamide]
- Ki (rat CB2 receptors): 0.003 µM
- Ki (human CB2 receptors): 0.0035 µM

SMILES: COCCNc1ccc(C(F)(F)F)cc1C(=O)/N=c1\cc(C(C)(C)C)n(C)n1C[C@H]1CCCO1 [Example 34]
- Ki (rat CB2 receptors): 0.0055 µM
- Ki (human CB2 receptors): 0.011 µM

SMILES: Cn1c(C(C)(C)C)c/c(=N\C(=O)c2cc(C#N)ccc2F)n1C[C@H]1CCCO1 [Example 114, N-{(3E)-5-tert-butyl-1-methyl-2-[(2R)-tetrahydrofuran-2-ylmethyl]-1,2-dihydro-3H-pyrazol-3-ylidene}-5-cyano-2-fluorobenzamide]
- Ki (rat CB2 receptors): 0.02 µM
- Ki (human CB2 receptors): 0.041 µM

SMILES: Cn1c(C(C)(C)C)c/c(=N\C(=O)c2cc(C(F)(F)F)ccc2/C=N\OC(C)(C)C)n1C[C@H]1CCCO1 [Example 109, 2-[(Z)-(tert-butoxyimino)methyl]-N-{(3E)-5-tert-butyl-1-methyl-2-[(2R)-tetrahydrofuran-2-ylmethyl]-1,2-dihydro-3H-pyrazol-3-ylidene}-5-(trifluoromethyl)benzamide]
- Ki (rat CB2 receptors): 0.015 µM
- Ki (human CB2 receptors): 0.023 µM

SMILES: Cn1c(C(C)(C)C)c/c(=N\C(=O)c2cc(C(F)(F)F)ccc2Br)n1C[C@H]1CCCO1 [Example 88, 2-bromo-N-{(3E)-5-tert-butyl-1-methyl-2-[(2R)-tetrahydrofuran-2-ylmethyl]-1,2-dihydro-3H-pyrazol-3-ylidene}-5-(trifluoromethyl)benzamide]
- Ki (rat CB2 receptors): 0.0054 µM
- Ki (human CB2 receptors): 0.02 µM

SMILES: Cn1c(C(C)(C)C)c/c(=N\C(=O)c2cc(Cl)ccc2F)n1C[C@H]1CCCO1 [Example 116]
- Ki (rat CB2 receptors): 0.011 µM
- Ki (human CB2 receptors): 0.026 µM

SMILES: CC1CCC(NC(=O)/N=c2\sc(C(C)(C)C)nn2C[C@H]2CCCO2)CC1 (stereo partly drawn) [Example 67, N-[(2Z)-5-tert-butyl-3-[(2R)-tetrahydrofuran-2-ylmethyl]-1,3,4-thiadiazol-2(3 H)-ylidene]-N′-(4-methylcyclohexyl)urea]
- Ki (rat CB2 receptors): 0.01 µM
- Ki (human CB2 receptors): 0.016 µM

SMILES: Cn1c(C(C)(C)C)c/c(=N\C(=O)c2cccc(C#N)c2)n1C[C@H]1CCCO1 [Example 130, N-{(3E)-5-tert-butyl-1-methyl-2-[(2R)-tetrahydrofuran-2-ylmethyl]-1,2-dihydro-3H-pyrazol-3-ylidene}-3-cyanobenzamide]
- Ki (rat CB2 receptors): 0.017 µM
- Ki (human CB2 receptors): 0.072 µM

SMILES: Cn1c(C(C)(C)C)c/c(=N\C(=O)c2cc(C(F)(F)F)ccc2OCCC(C)(C)F)n1C[C@H]1CCCO1 [Example 43, N-{(3E)-5-tert-butyl-1-methyl-2-[(2R)-tetrahydrofuran-2-ylmethyl]-1,2-dihydro-3H-pyrazol-3-ylidene}-2-(3-fluoro-3-methylbutoxy)-5-(trifluoromethyl)benzamide]
- Ki (rat CB2 receptors): 0.01 µM
- Ki (human CB2 receptors): 0.019 µM

SMILES: COc1ccc(Cl)cc1C(=O)/N=c1\ccc(C)cn1CC1CCCO1 (centres unmarked) [Example 10, 5-chloro-2-methoxy-N-[(2E)-5-methyl-1-(tetrahydrofuran-2-ylmethyl)pyridin-2(1 H)-ylidene]benzamide]
- Ki (human CB2 receptors; HEK293 membranes, 0.5 nM [3H]CP-55,940, read-out: human CB2 Ki): 0.36 µM

SMILES: COc1ccc(Cl)cc1C(=O)/N=c1\sc(C2(C(F)(F)F)CCC2)nn1C[C@H]1CCCO1 [Example 8, 5-chloro-2-methoxy-N-[(2Z)-3-[(2R)-tetrahydrofuran-2-ylmethyl]-5-[1-(trifluoromethyl)cyclobutyl]-1,3,4-thiadiazol-2(3H)-ylidene]benzamide]
- Ki (rat CB2 receptors): 0.0008 µM
